According to patent US11839613B2, “Pyrimidine derivatives as PGE2 receptor modulators” (IDORSIA PHARMACEUTICALS LTD, priority 2017, dated 2023):

Experiments:
PTGER2 (EP2) = PTGER2 (EP2) (Homo sapiens (Human), UniProt P43116); experiment: hEP2 b-arrestin assay (PathHunter HEK 293 PTGER2 b-arrestin cells); assay type: cell-based; settings: antagonistic activity, beta-arrestin assay; read-out: hEP2 b-arr IC50
Experimental: Plate is pre-incubated 15 minutes at 37° C. Then five microliters of PGE2 (final conc. 5 μM) are transferred into the assay plate. Plate is incubated 120 minutes at 37° C.
(each concentration is measured in duplicate)

EP2 = EP2 (Homo sapiens (Human), UniProt P43116); experiment: hEP2 cAMP assay (SF295 glioblastoma cells, HTRF cAMP); assay type: cell-based; settings: antagonistic activity
In short: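 PGE2-driven cAMP accumulation was measured by HTRF in SF295 cells, which express endogenous EP2 only. Cells in assay buffer with 2 mM IBMX were pre-incubated 45 min at RT, then incubated 30 min at RT. Detection used competition between cellular cAMP and d2-cAMP for a cryptate anti-cAMP antibody.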

EP4 = EP4 (Homo sapiens (Human), UniProt P35408); experiment: hEP4 cAMP assay (BT549 breast cancer cells, HTRF cAMP); assay type: cell-based; settings: antagonistic activity, PGE2 6 nM
In short: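 BT549 breast cancer cells (endogenous EP4) in HBSS/20 mM HEPES/0.2% BSA/2 mM IBMX preincubated 45 min at RT with compound, then stimulated 30 min at RT with 6 nM PGE2 (final). cAMP read by competitive HTRF immunoassay, signal inversely proportional to cAMP.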

PTGER4 (EP4) = PTGER4 (EP4) (Homo sapiens (Human), UniProt P35408); experiment: cell-based
Sequence of PTGER4 (EP4) (P35408 whole entry): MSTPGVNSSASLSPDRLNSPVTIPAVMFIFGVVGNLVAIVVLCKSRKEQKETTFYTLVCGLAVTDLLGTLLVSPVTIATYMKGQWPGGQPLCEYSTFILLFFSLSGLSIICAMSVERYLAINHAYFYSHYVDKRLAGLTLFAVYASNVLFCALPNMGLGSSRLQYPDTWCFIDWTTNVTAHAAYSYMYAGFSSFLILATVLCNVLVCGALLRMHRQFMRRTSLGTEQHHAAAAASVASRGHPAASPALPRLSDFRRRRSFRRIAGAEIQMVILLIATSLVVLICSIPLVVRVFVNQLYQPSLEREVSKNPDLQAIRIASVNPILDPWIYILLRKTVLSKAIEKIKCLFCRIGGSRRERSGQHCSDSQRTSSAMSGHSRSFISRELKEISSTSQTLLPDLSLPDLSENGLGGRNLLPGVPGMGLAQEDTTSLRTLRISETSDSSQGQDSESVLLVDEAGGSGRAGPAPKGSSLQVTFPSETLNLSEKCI
Excerpt: The system is based on the Enzyme Fragment Complementation Technology. Two complementing fragments of the b-galactosidase enzyme are expressed within stably transfected cells. The larger portion of b-gal, termed EA for Enzyme Acceptor, is fused to the C-terminus of b-arrestin 2. The smaller fragment, termed ProLink™ tag, is fused to PTGER2 (EP2) or PTRGER4 (EP4) at the C-terminus. Upon activation, b-arrestin is recruited which forces the interaction of ProLink and EA, allowing complementation of the two fragments of b-gal and the formation of a functional enzyme which is capable of hydrolysing the substrate and generating a chemiluminescent signal.
Plate is incubated at 37° C., 5% CO2 for 24 hours.
Stock solutions of test compounds are made at a concentration of 10 mM in DMSO, and serially diluted in DMSO to concentrations required for inhibition dose response curves (tested concentration range 10 μM-2 nM or 1 μM-0.2 nM).
Five microliters of diluted compounds are transferred into the assay plate. Plate is pre-incubated 15 minutes at 37° C. Then five microliters of PGE2 (final conc. 20 nM) are transferred into the assay plate. Plate is incubated 120 minutes at 37° C.
Twelve I of reagent are transferred to the assay plate and incubate for 1 hour at RT in the dark. Luminescence counts are read on a BMG Fluostar Optima reader according to manufacturer's instructions.
For each compound concentration calculate of the percentage of activity compared to DMSO control value as average ±STDEV. (each concentration is measured in duplicate)

Sequence of EP4 (P35408 whole entry): as above
Sequence of PTGER2 (EP2) (P43116 whole entry): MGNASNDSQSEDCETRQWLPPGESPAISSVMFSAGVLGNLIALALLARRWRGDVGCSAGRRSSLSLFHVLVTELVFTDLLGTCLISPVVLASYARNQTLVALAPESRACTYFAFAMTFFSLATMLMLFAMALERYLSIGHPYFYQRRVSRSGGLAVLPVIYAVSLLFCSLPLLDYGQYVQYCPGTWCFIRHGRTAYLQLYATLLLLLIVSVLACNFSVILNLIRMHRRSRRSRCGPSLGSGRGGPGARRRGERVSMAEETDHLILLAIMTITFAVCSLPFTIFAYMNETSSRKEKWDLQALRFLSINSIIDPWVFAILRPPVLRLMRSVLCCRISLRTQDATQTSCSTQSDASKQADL
Sequence of EP2 (P43116 whole entry): as above

| IC50 (PTGER2 (EP2)) | IC50 (EP2) | IC50 (EP4) | IC50 (PTGER4 (EP4)) | Structure (SMILES) |
| --- | --- | --- | --- | --- |
| 6 nM | 4 nM | 10 nM | 70 nM | COc1cc2sccc2cc1CCNc1cc(-c2ccc(C(=O)O)c(SC)c2)ncn1 [Ex 18, 4-{6-[2-(6-Methoxy-benzo[b]thiophen-5-yl)-ethylamino]-pyrimidin-4-yl}-2-methylsulfanyl-benzoic acid] |
| 72 nM | 52 nM | 15 nM | 18 nM | CCOc1cc(-c2cc(NCCc3ccc4cc[nH]c4c3)ncn2)sc1C(=O)O [Ex 24, 3-Ethoxy-5-{6-[2-(1H-indol-6-yl)-ethylamino]-pyrimidin-4-yl}-thiophene-2-carboxylic acid] |
| 135 nM | 74 nM | 61 nM | 96 nM | CCCc1cc(-c2cc(NCCc3ccc4ccccc4c3C)ncn2)ccc1C(=O)O [Ex 28, 4-{6-[2-(1-Methyl-naphthalen-2-yl)-ethylamino]-pyrimidin-4-yl}-2-propyl-benzoic acid] |
| 29 nM | 14 nM | 17 nM | 51 nM | CCOc1cc(-c2cc(NCCc3cc4c(cc3C)OCCO4)ncn2)sc1C(=O)O [Ex 30, 3-Ethoxy-5-{6-[2-(7-methyl-2,3-dihydro-benzo[1,4]dioxin-6-yl)-ethylamino]-pyrimidin-4-yl}-thiophene-2-carboxylic acid] |
| 199 nM | 161 nM | 18 nM | 56 nM | CCOc1cc(-c2cc(NCCc3ccc4[nH]ccc4c3)ncn2)sc1C(=O)O [Ex 32, 3-Ethoxy-5-{6-[2-(1H-indol-5-yl)-ethylamino]-pyrimidin-4-yl}-thiophene-2-carboxylic acid] |
| 6 nM | 8 nM | 18 nM | 25 nM | CCOc1cc(-c2cc(NCCc3cc4ccsc4cc3C)ncn2)sc1C(=O)O [Ex 34, 3-Ethoxy-5-{6-[2-(6-methyl-benzo[b]thiophen-5-yl)-ethylamino]-pyrimidin-4-yl}-thiophene-2-carboxylic acid] |
| 226 nM | 210 nM | 28 nM | 123 nM | O=C(O)c1cc2cc(-c3cc(NCCc4ccc5sccc5c4)ncn3)ccc2o1 [Ex 38, 5-[6-(2-Benzo[b]thiophen-5-yl-ethylamino)-pyrimidin-4-yl]-benzofuran-2-carboxylic acid] |
| 4 nM | 2 nM | 19 nM | 14 nM | CCOc1cc2c(cc1CCNc1cc(-c3cc(OCC)c(C(=O)O)s3)ncn1)OCCO2 [Ex 39, 3-Ethoxy-5-{6-[2-(7-ethoxy-2,3-dihydro-benzo[1,4]dioxin-6-yl)-ethylamino]-pyrimidin-4-yl}-thiophene-2-carboxylic acid] |
| 126 nM | 228 nM | 20 nM | 25 nM | CCOc1cc(-c2cc(NCCc3cc4ccccc4cc3C)ncn2)sc1C(=O)O [Ex 40, 3-Ethoxy-5-{6-[2-(3-methyl-naphthalen-2-yl)-ethylamino]-pyrimidin-4-yl}-thiophene-2-carboxylic acid] |
| 405 nM | 164 nM | 21 nM | 30 nM | CCOc1cc(-c2cc(NCCc3ccc4c(c3)OCCO4)ncn2)sc1C(=O)O [Ex 41, 5-{6-[2-(2,3-Dihydro-benzo[1,4]dioxin-6-yl)-ethylamino]-pyrimidin-4-yl}-3-ethoxy-thiophene-2-carboxylic acid] |
| 240 nM | 137 nM | 21 nM | 25 nM | CCOc1cc(-c2cc(NCCc3ccc4ccn(C)c4c3)ncn2)sc1C(=O)O [Ex 42, 3-Ethoxy-5-{6-[2-(1-methyl-1H-indol-6-yl)-ethylamino]-pyrimidin-4-yl}-thiophene-2-carboxylic acid] |
| 45 nM | 91 nM | 22 nM | 85 nM | CCOc1cc(-c2cc(NCCc3ccc4scc(C)c4c3)ncn2)sc1C(=O)O [Ex 47, 3-Ethoxy-5-{6-[2-(3-methyl-benzo[b]thiophen-5-yl)-ethylamino]-pyrimidin-4-yl}-thiophene-2-carboxylic acid] |
| 230 nM | 207 nM | 25 nM | 22 nM | CCOc1cc(-c2cc(NCCc3cc(Cl)c4c(c3)OCCO4)ncn2)sc1C(=O)O [Ex 51, 5-{6-[2-(8-Chloro-2,3-dihydro-benzo[1,4]dioxin-6-yl)-ethylamino]-pyrimidin-4-yl}-3-ethoxy-thiophene-2-carboxylic acid] |
| 844 nM | 335 nM | 16 nM | 25 nM | CCOc1cc(-c2cc(NCCc3c(F)c(F)c4cc(C)oc4c3OC)ncn2)sc1C(=O)O [Ex 55, 5-{6-[2-(4,5-Difluoro-7-methoxy-2-methyl-benzofuran-6-yl)-ethylamino]-pyrimidin-4-yl}-3-ethoxy-thiophene-2-carboxylic acid] |
| 538 nM | 190 nM | 28 nM | 27 nM | CCOc1cc(-c2cc(NCCc3ccc4c(c3)CCCO4)ncn2)sc1C(=O)O [Ex 56, 5-[6-(2-Chroman-6-yl-ethylamino)-pyrimidin-4-yl]-3-ethoxy-thiophene-2-carboxylic acid] |
| 195 nM | 191 nM | 28 nM | 34 nM | CCOc1cc(-c2cc(NCCc3ccc4ccccc4c3C)ncn2)sc1CCC(=O)O [Ex 57, 3-(3-Ethoxy-5-{6-[2-(1-methyl-naphthalen-2-yl)-ethylamino]-pyrimidin-4-yl}-thiophen-2-yl)-propionic acid] |
| 123 nM | 110 nM | 36 nM | 40 nM | CCOc1cc(-c2cc(NCCc3ccc4c(c3)OCC4)ncn2)sc1C(=O)O [Ex 67, 5-{6-[2-(2,3-Dihydro-benzofuran-6-yl)-ethylamino]-pyrimidin-4-yl}-3-ethoxy-thiophene-2-carboxylic acid] |
| 450 nM | 151 nM | 40 nM | 257 nM | CCCc1cc(-c2cc(NCCc3ccc4ccccc4c3C)ncn2)cc(F)c1C(=O)O [Ex 74, 2-Fluoro-4-{6-[2-(1-methyl-naphthalen-2-yl)-ethylamino]-pyrimidin-4-yl}-6-propyl-benzoic acid] |
| 360 nM | 221 nM | 42 nM | 120 nM | Cc1c(CCNc2cc(-c3ccc(C(=O)O)c(CC(C)C)c3)ncn2)ccc2ccccc12 [Ex 76, 2-Isobutyl-4-{6-[2-(1-methyl-naphthalen-2-yl)-ethylamino]-pyrimidin-4-yl}-benzoic acid] |
| 141 nM | 219 nM | 44 nM | 21 nM | CCOc1cc(-c2cc(NCCc3cc4c(cc3SC)OCCO4)ncn2)sc1C(=O)O [Ex 78, 3-Ethoxy-5-{6-[2-(7-methylsulfanyl-2,3-dihydro-benzo[1,4]dioxin-6-yl)-ethylamino]-pyrimidin-4-yl}-thiophene-2-carboxylic acid] |
| 122 nM | 123 nM | 164 nM | 1840 nM | COc1cc2c(cc1CCNc1cc(-c3ccc4cc(C(=O)O)oc4c3)ncn1)OCCO2 [Ex 81, 6-{6-[2-(7-Methoxy-2,3-dihydro-benzo[1,4]dioxin-6-yl)-ethylamino]-pyrimidin-4-yl}-benzofuran-2-carboxylic acid] |
| 274 nM | 70 nM | 47 nM | 255 nM | Cc1c(CCNc2cc(-c3ccc(C(=O)O)c(OC(F)F)c3)ncn2)ccc2ccccc12 [Ex 83, 2-Difluoromethoxy-4-{6-[2-(1-methyl-naphthalen-2-yl)-ethylamino]-pyrimidin-4-yl}-benzoic acid] |
| 275 nM | 85 nM | 118 nM | 1260 nM | COc1cc2c(cc1CCNc1cc(-c3ccc4oc(C(=O)O)cc4c3)ncn1)OCCO2 [Ex 93, 5-{6-[2-(7-Methoxy-2,3-dihydro-benzo[1,4]dioxin-6-yl)-ethylamino]-pyrimidin-4-yl}-benzofuran-2-carboxylic acid] |
| 9 nM | 6 nM | 70 nM | 141 nM | CCOc1cc(-c2cc(NCCc3c(OC)cc4occc4c3C)ncn2)ccc1OCC(=O)O [Ex 102, (2-Ethoxy-4-{6-[2-(6-methoxy-4-methyl-benzofuran-5-yl)-ethylamino]-pyrimidin-4-yl}-phenoxy)-acetic acid] |
| 51 nM | 89 nM | 71 nM | 18 nM | C#Cc1cc2ccccc2cc1CCNc1cc(-c2ccc(OCC(=O)O)c(OCC)c2)ncn1 [Ex 103, (2-Ethoxy-4-{6-[2-(3-ethynyl-naphthalen-2-yl)-ethylamino]-pyrimidin-4-yl}-phenoxy)-acetic acid] |
| 12 nM | 13 nM | 71 nM | 91 nM | CCOc1cc(-c2cc(NCCc3cc4c(cc3F)OCCN4C)ncn2)sc1C(=O)O [Ex 104, 3-Ethoxy-5-{6-[2-(7-fluoro-4-methyl-3,4-dihydro-2H-benzo[1,4]oxazin-6-yl)-ethylamino]-pyrimidin-4-yl}-thiophene-2-carboxylic acid] |

| Structure (SMILES) | IC50 (PTGER2 (EP2)) | IC50 (EP2) | IC50 (EP4) | IC50 (PTGER4 (EP4)) |
| --- | --- | --- | --- | --- |
| COc1cc2occc2cc1CCNc1cc(-c2ccc(C(=O)O)c(OC3CCC3)c2)ncn1 [Ex 100, 2-Cyclobutoxy-4-{6-[2-(6-methoxy-benzofuran-5-yl)-ethylamino]-pyrimidin-4-yl}-benzoic acid] | 35 nM | 29 nM | 67 nM | 176 nM |
